Columns and labels:
[1] = tested on: Sv1v2 chimeric Env pseudotype; assay: Inhibition of pseudotype infection by entry/fusion inhibitors, Sv1v2 Env; format: cell-based, HIV-1; conditions: HOS-CD4-CCR5 cells, inhibitor + virus 5–6 h at 37°C, luciferase at 2–3 days, non-linear regression, 95% confidence limits in parentheses
Description: (§1) To produce Env-pseudotyped, luciferase-reporter viruses, 293T cells were co-transfected using calcium phosphate precipitation (ProFection Mammalian Transfection System, Promega, Madison, WI) with each Env expression vector and with the Env-deficient, pNL4-3-luc^+env^- provirus, developed by N. Landau by introducing a frameshift mutation in the env gene of pNL4-3-luc^+ [87]. Culture supernatants containing the pseudotyped particles were collected 48–72 hours after transfection, clarified by centrifugation, aliquoted and stored at -80°C until use. Pseudotype particles lacking envelope glycoproteins, which are generated by co-transfecting the luciferase HIV-1 pro-viral backbone with an empty expression vector, are used as negative control for all pseudotype infections. Pseudotype stocks were quantitated using a p24^gag antigen capture ELISA (SAIC-National Cancer Institute) and normalized amounts of stocks were used to infect target cells for 5–6 hours at 37°C. At 2–3 days post-infection, the cells were washed with PBS and lysed, and the amount of entry mediated by each Env was measured by detecting luciferase activity (Luciferase Assay System, Promega) in a microplate luminometer (GloMax, Promega), following manufacturer's instructions. Results are obtained as relative light units (RLU) per second. […]

[2] = tested on: Spl(T283N) mutant Env pseudotype; assay: Inhibition of pseudotype infection by entry/fusion inhibitors, Spl(T283N) Env; format: cell-based, HIV-1; conditions: HOS-CD4-CCR5 cells, inhibitor + virus 5–6 h at 37°C, luciferase at 2–3 days, non-linear regression, 95% confidence limits in parentheses
Description: as §1

[3] = tested on: BS chimeric Env (brain gp120-spleen gp41) pseudotype; format: cell-based, HIV-1; conditions: HOS-CD4-CCR5 cells, inhibitor + virus 5–6 h at 37°C, luciferase at 2–3 days, non-linear regression, 95% confidence limits in parentheses
Description: (§2) To produce Env-pseudotyped, luciferase-reporter viruses, 293T cells were co-transfected using calcium phosphate precipitation (ProFection Mammalian Transfection System, Promega, Madison, WI) with each Env expression vector and with the Env-deficient, pNL4-3-luc^+env^- provirus, developed by N. Landau by introducing a frameshift mutation in the env gene of pNL4-3-luc^+ [87]. Culture supernatants containing the pseudotyped particles were collected 48–72 hours after transfection, clarified by centrifugation, aliquoted and stored at -80°C until use. Pseudotype particles lacking envelope glycoproteins, which are generated by co-transfecting the luciferase HIV-1 pro-viral backbone with an empty expression vector, are used as negative control for all pseudotype infections. Pseudotype stocks were quantitated using a p24^gag antigen capture ELISA (SAIC-National Cancer Institute) and normalized amounts of stocks were used to infect target cells for 5–6 hours at 37°C. At 2–3 days post-infection, the cells were washed with PBS and lysed, and the amount of entry mediated by each Env was measured by detecting luciferase activity (Luciferase Assay System, Promega) in a microplate luminometer (GloMax, Promega), following manufacturer's instructions. Results are obtained as relative light units (RLU) per second. At least three independent experiments were performed for each analysis described below, with 2–8 replicates within each experiment.
(§3) To test for sensitivity to fusion inhibitors, BMS-378806 and HNG-105, the medium from HOS-CD4-CCR5 cells plated in 96-well plates 24 hours before infection, was removed and replaced by fresh medium containing 2× the final concentration of the corresponding inhibitor, and immediately the same volume of viral stocks was added. After 5–6 hours at 37°C, inocula and inhibitors were removed and the cells were incubated for 2–3 days before evaluating the amount of infection.
(§4) Inhibition curves obtained by plotting the relative infection (expressed as a percent of untreated) versus the concentration of the inhibitor were analyzed by non-linear regression with a sigmoidal dose-response model (variable slopes) using GraphPad Prism software, version 4.02 (GraphPad Software, San Diego, CA); this analysis uses a four parameter logistic equation, Y = Bottom + (Top-Bottom)/( 1+10^((log10IC50−X)⋅Slope) ) where Y is the response, Bottom is 0 and Top is 100, X is the logarithm of the concentration, and Slope is the slope of the curve. 50% inhibitory concentrations (IC50) and 95% confidence intervals were estimated from the non-linear regression analysis. Fusogenicity data were analyzed by non-linear regression with a one-phase exponential model (using GraphPad Prism) that uses the equation Y=Ymax(1-e^(-kX)), where Ymax is the maximum response and k is the observed rate. CD4 dependence data were analyzed with SPSS, version 16, using the non-parametric Mann-Whitney test.

[4] = tested on: Bv1v2 chimeric Env pseudotype; format: cell-based, HIV-1; conditions: HOS-CD4-CCR5 cells, inhibitor + virus 5–6 h at 37°C, luciferase at 2–3 days, non-linear regression, 95% confidence limits in parentheses
Description: as §2, §3, §4

DS17 Env pseudotype = format: cell-based, HIV-1; conditions: HOS-CD4-CCR5 cells, inhibitor + virus 5–6 h at 37°C, luciferase at 2–3 days, non-linear regression, 95% confidence limits in parentheses
Description: as §2, §3, §4

[5] = tested on: Spl (spleen-derived) Env pseudotype; format: cell-based, HIV-1; conditions: HOS-CD4-CCR5 cells, inhibitor + virus 5–6 h at 37°C, luciferase at 2–3 days, non-linear regression, 95% confidence limits in parentheses
Description: as §2, §3, §4

BaL Env pseudotype = format: cell-based, HIV-1; conditions: HOS-CD4-CCR5 cells, inhibitor + virus 5–6 h at 37°C, luciferase at 2–3 days, non-linear regression, 95% confidence limits in parentheses
Description: as §2, §3, §4

[6] = tested on: Bv1v3 chimeric Env pseudotype; format: cell-based, HIV-1; conditions: HOS-CD4-CCR5 cells, inhibitor + virus 5–6 h at 37°C, luciferase at 2–3 days, non-linear regression, 95% confidence limits in parentheses
Description: as §2, §3, §4

[7] = tested on: Br (brain-derived) Env pseudotype; format: cell-based, HIV-1; conditions: HOS-CD4-CCR5 cells, inhibitor + virus 5–6 h at 37°C, luciferase at 2–3 days, non-linear regression, 95% confidence limits in parentheses
Description: as §2, §3, §4

[8] = tested on: DS17(N283T) mutant Env pseudotype; format: cell-based, HIV-1; conditions: HOS-CD4-CCR5 cells, inhibitor + virus 5–6 h at 37°C, luciferase at 2–3 days, non-linear regression, 95% confidence limits in parentheses
Description: as §2, §3, §4

[9] = tested on: SB chimeric Env (spleen gp120-brain gp41) pseudotype; format: cell-based, HIV-1; conditions: HOS-CD4-CCR5 cells, inhibitor + virus 5–6 h at 37°C, luciferase at 2–3 days, non-linear regression, 95% confidence limits in parentheses
Description: as §2, §3, §4

[10] = tested on: Br(N283T) mutant Env pseudotype; format: cell-based, HIV-1; conditions: HOS-CD4-CCR5 cells, inhibitor + virus 5–6 h at 37°C, luciferase at 2–3 days, non-linear regression, 95% confidence limits in parentheses
Description: as §2, §3, §4

[11] = tested on: pseudotypes containing wild-type, chimeric and mutant Env; assay: Inhibition of pseudotype infection by entry/fusion inhibitors, Env panel; format: cell-based, HIV-1
Description: as §1
as §4, with “50% inhibitory concentrations (IC50) and 95% confidence intervals were estimated from the non-linear regression analysis.” left out, “CD4 dependence data were analyzed with SPSS, version 16, using the non-parametric Mann-Whitney test.” left out

HxB Env pseudotype = assay: Inhibition of pseudotype infection by entry/fusion inhibitors, HxB Env; format: cell-based, HIV-1; conditions: inhibitor + virus 5–6 h at 37°C, luciferase at 2–3 days, non-linear regression, 95% confidence limits in parentheses
Description: as §1

macrophage-tropic Env = conditions: Peters et al.; cited from earlier work
Text: Therefore, low CD4 dependence seems to correlate not only with fusogenicity and with the sensitivity to fusion and other entry inhibitors, but also with the macrophage tropism of Env. This is in agreement with recent work by Thomas et al. reporting that Env conferring macrophage tropism display low CD4 dependence and higher efficiency of fusion.

[12] = tested on: Sv1v3 chimeric Env pseudotype; assay: Inhibition of pseudotype infection by entry/fusion inhibitors, Sv1v3 Env; format: cell-based, HIV-1; conditions: HOS-CD4-CCR5 cells, inhibitor + virus 5–6 h at 37°C, luciferase at 2–3 days, non-linear regression, 95% confidence limits in parentheses
Description: as §1

[13] = tested on: brain-derived Env versus spleen-derived Env; conditions: cited from earlier work
Text: We and others have investigated whether viruses or Env with these particular phenotypes are present among primary isolates in the brain/CNS of HIV-1-infected individuals. In this sense, Peters et al. have reported that the macrophage tropism of brain-derived Env seems to correlate with reduced sensitivity to inhibition by an anti-CD4 mAb but not by CCR5 antagonists or gp41-targeting antibodies or fusion inhibitor peptides. […] We hypothesized that the brain gp120 would contain the determinants for low CD4 dependence and higher avidity for CD4, while gp41 could likely play a role in the increased fusogenicity and reduced sensitivity to fusion inhibitors. In the present study, we have used chimeric and ...

[14] = target: T1, N40, biotinylated HR1-derived peptide (HIV-1, biotin on the amino terminus); assay: SPR; Biacore 3000; biotinylated N40 held on a streptavidin SA chip, N40scr surface as reference; T-1249 and T-1249-BR at 81–650 nM passed over at 25 µl/min, 25°C; 25 mM Tris-HCl, 150 mM NaCl, pH 7.4, 8% DMSO; conditions: both partners purified
T1 construct: peptide derived from the heptad repeat 1 (HR1) region of HIV-1 gp41; Held on a streptavidin SA chip by its biotin; also called HR1-based peptide; source: synthetic peptide, custom synthesized
T1 peptide: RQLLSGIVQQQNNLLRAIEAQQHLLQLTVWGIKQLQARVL

## COc1ccnc2[nH]cc(C(=O)C(=O)N3CCN(C(=O)c4ccccc4)C[C@H]3C)c12 [BMS-378806]
[1]
  IC50: 1.2 nM
[2]
  IC50: 0.9 nM
[3]
  IC50: 20 nM
[4]
  IC50: 4.8 nM
DS17 Env pseudotype
  IC50: 41 nM
[5]
  IC50: 1.8 nM
BaL Env pseudotype
  IC50: 29 nM
[6]
  IC50: 8.2 nM
[7]
  IC50: 15 nM
[8]
  IC50: 32 nM
[9]
  IC50: 2 nM
[10]
  IC50: 13 nM
[11]; BR, BR(N283T), BS and Bv1v3 Env vs SPL, SPL(T283N), SB, Sv1v3 or Sv1v2
  sensitivity of pseudotypes to inhibitor: significantly less sensitive to inhibition by BMS-378806
[11]; DS17 and DS17(N283T) Env vs BR and Env with related phenotype
  sensitivity of pseudotypes to inhibitor: reduced sensitivity to BMS-378806 as compared to the BR
HxB Env pseudotype
  IC50: 3.9 nM
macrophage-tropic Env
  relation of inhibitor sensitivity to macrophage tropism: correlated with increasing macrophage tropism
[12]
  IC50: 0.9 nM

## Cc1ccc(-c2ccc3c(c2)C=C(C(=O)Nc2ccc(C[N+](C)(C)C4CCOCC4)cc2)CCC3)cc1.[Cl-] [TAK-779]
[13]
  sensitivity of brain-derived Env to CCR5 inhibitor: absence of differences in sensitivity

B1: T-1249 (peptide)
peptide: WQEWEQKITALLEQAQIQQEKNEYELQKLDKWASLWEWF
notes: also called parental T-1249; HR2-derived peptide; source: synthetic peptide, custom synthesized (BioSynthesis, Inc.)
[14]
  binding result: binds

B2: T-1249-BR (peptide)
peptide: WQEWEQKITALLEQAQIQQEMNEQELQKLDTWASLWEWF
notes: T-1249 with three amino acid changes (printed in bold) that are present in the HR2 region of the H0002GH brain-derived env clones; also called modified T-1249-BR; HR2-derived peptide; source: synthetic peptide, custom synthesized (BioSynthesis, Inc.)
[14]
  binding result: binds

From PMC2576352, “The V1-V3 region of a brain-derived HIV-1 envelope glycoprotein determines macrophage tropism, low CD4 dependence, increased fusogenicity and altered sensitivity to entry inhibitors” (Retrovirology, 2008)
